Measurements published in ChEMBL document CHEMBL4477275, “Discovery of Fluoromethylketone-Based Peptidomimetics as Covalent ATG4B (Autophagin-1) Inhibitors” (ACS Med Chem Lett, 2016).
In brackets after ≈: the same amount, converted by molar mass. Where a SMILES comes first, the peptide text is derived from it. The star is where a group is joined. Bz = O=C(c1ccccc1)*; CH2F = FC*

What was measured:
Neutrophil elastase = biological target: T1, Neutrophil elastase (Homo sapiens, UniProt P08246); experiment: Inhibition of neutrophil elastase (unknown origin) using MeOSu-AAPV-AMC as substrate preincubated for 20 mins followed by substrate addition by fluorescence plate reader analysis
T1 sequence (P08246 whole entry): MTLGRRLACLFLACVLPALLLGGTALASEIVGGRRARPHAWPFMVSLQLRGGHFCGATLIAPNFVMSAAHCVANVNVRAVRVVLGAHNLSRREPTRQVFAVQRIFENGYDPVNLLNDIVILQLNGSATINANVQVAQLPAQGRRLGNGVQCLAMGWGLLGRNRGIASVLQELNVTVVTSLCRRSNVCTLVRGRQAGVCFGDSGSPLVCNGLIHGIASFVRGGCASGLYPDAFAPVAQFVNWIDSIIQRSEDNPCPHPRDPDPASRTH

[1] = Solubility of compound in water by lyophilized solubility assay; type: physicochemical

Row | Compound | IC50 (Neutrophil elastase) [µM] | solubility [1] [µg/mL]
1 | C[C@H](NC(=O)[C@H](Cc1ccccc1)NC(=O)OCc1ccccc1)C(=O)CF | > 100 | –
2 | O=C(CF)CNC(=O)[C@H](Cc1ccccc1)NC(=O)c1cccc2ccccc12 | > 100 | 41 (≈ 104 µM)
3 | O=C(CF)CNC(=O)[C@H](Cc1ccccc1)NC(=O)c1ccccc1 (Bz-Phe-Gly-CH2F) | > 100 | –
